Test results: paper PMC3820677 (PLoS ONE, 2013)

Biological target: mKv1.3 (Mus musculus, UniProt P16390)
Test: cell-based

Chain of mKv1.3 (P16390 whole entry): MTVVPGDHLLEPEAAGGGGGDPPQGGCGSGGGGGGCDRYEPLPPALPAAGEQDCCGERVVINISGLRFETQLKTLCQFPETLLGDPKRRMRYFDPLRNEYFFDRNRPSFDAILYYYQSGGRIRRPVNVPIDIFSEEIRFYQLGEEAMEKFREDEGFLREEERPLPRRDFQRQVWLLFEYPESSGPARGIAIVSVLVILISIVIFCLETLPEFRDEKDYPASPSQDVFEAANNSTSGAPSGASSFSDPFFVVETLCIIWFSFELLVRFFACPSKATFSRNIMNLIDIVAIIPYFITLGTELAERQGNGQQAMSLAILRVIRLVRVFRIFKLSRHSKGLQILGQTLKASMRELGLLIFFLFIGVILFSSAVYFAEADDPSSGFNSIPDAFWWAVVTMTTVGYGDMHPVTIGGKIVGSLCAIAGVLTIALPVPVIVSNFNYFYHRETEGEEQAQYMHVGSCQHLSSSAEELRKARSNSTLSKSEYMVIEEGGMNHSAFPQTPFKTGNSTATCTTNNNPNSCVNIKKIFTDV

CC[C@H](C)[C@@H]1NC(=O)[C@@H](NC(=O)[C@H](CO)NC(=O)[C@@H](N)CCCNC(=N)N)CSSC[C@@H](C(=O)O)NC(=O)[C@H]([C@@H](C)O)NC(=O)CNC(=O)[C@@H]2CSSC[C@@H]3NC(=O)[C@H](CCC(N)=O)NC(=O)[C@H](Cc4ccccc4)NC(=O)[C@H](C)NC(=O)[C@H]([C@@H](C)O)NC(=O)[C@H](CSSC[C@H](NC(=O)[C@H](Cc4ccccc4)NC(=O)[C@H](CO)NC(=O)[C@H](CC(C)C)NC(=O)[C@H](CCCNC(=N)N)NC(=O)[C@H](Cc4ccc(O)cc4)NC(=O)[C@H](CCCCN)NC(=O)[C@H](CCSC)NC(=O)[C@H](CO)NC(=O)[C@H](Cc4cnc[nH]4)NC(=O)[C@H](CCCCN)NC3=O)C(=O)N[C@@H](CCCNC(=N)N)C(=O)N[C@@H](CCCCN)C(=O)N[C@@H]([C@@H](C)O)C(=O)N2)NC(=O)[C@H](CCCNC(=N)N)NC(=O)[C@H](CO)NC(=O)[C@H](CCCCN)NC(=O)[C@@H]2CCCN2C(=O)[C@H]([C@@H](C)CC)NC(=O)[C@H]([C@@H](C)O)NC(=O)[C@H](CC(=O)O)NC1=O [ShK]
IC50: 9.3 ± 2 pM
